This is an account of results in US20120136033A1, “Small Molecule Antagonists of Phosphatidylinositol-3,4,5-Triphosphate (PIP3) and Uses Thereof” (President and Fellows of Harvard College, priority 2009, published 2012).

pIC50: −log10 of the molar value.

For one data set, the target named is T1, VAV2 (Homo sapiens, UniProt P52735).
T1 construct: expressed in transfected cells; host or cells: SUM159
Put plainly: plasma membrane translocation assay, VAV2-GFP. To be noted: PDGF stimulation. The class given is cell-based. The method, then: (§1) To begin characterizing cellular activity of PITs, a PH domain translocation assay was performed, measuring PIP3-induced association of GFP-fused PH domains with the plasma membrane. This method provides useful means for monitoring status of the PH domain/PIP3 binding in the intact cells. Varnai P et al. (1999) J Biol Chem 274:10983-9. Several PH-domain-containing proteins, which are known to bind PIP3 specifically and efficiently, were examined. […] Oikawa T et al. (2004) Nat Cell Biol 6:420-6.

For the next data set, the target named is T2, Akt PH domain (Homo sapiens, UniProt P31749).
T2 construct: Akt PH domain-GFP, VAV2-GFP and VAV3-GFP vectors were generous gifts of Dr. Joanne Brugge; expressed in transfected cells
Nature of the data set: PH domain translocation assay, GFP-fused Akt PH domain. The class given is cell-based. The note with it: 100 μM, 2 hr, PDGF stimulation. The procedure: Cells were transfected with the corresponding GFP-fusion vectors, serum starved overnight, and incubated with 100 μM PITs or PIT-1is for 2 hr, followed by stimulation with 100 ng/ml PDGF or 250 ng/ml PMA for 5 min. The translocation was analyzed using fluorescent microscope and was quantitated by counting the number of cells with translocated PH domains in five random fields.
as §1

Another data set deals with U87MG cells. Put plainly: cell death with pan-caspase inhibitor zVAD.fmk, Sytox assay. The class given is cell-based, human. The note with it: 100 μM zVAD.fmk, 24 hr. The procedure: FIG. 11 is a bar graph depicting that cell death triggered by PIT-1 alone or in combination with TRAIL is inhibited by pan-caspase inhibitor zVAD.fmk. U87MG cells were incubated with or without 100 μM zVAD.fmk together with PIT-1 (25, 50, 100 μM) in the presence or absence of 10 ng/ml TRAIL for 24 hr, and analyzed by Sytox cell death assay.
Based on the critical role of PIP3-dependent Akt signaling in the regulation of cell survival, the effect of PIT-1 on the cancer cell viability was tested. […] For the ATP assay, a luminescence-based commercial kit (CellTiter-Glo, Promega, Madison, Wis.) was used. Thirty microliters of cell lysis/ATP detection reagent was added to each well, mixed for 10 min at room temperature, and the luminescence was measured using a Wallac Victor 3 plate reader (Perkin-Elmer, Wellesley, Mass.). […] Twenty microliters of the combined MTS/PMS solution was added into each well, incubated for 4 hr at 37° C., and the absorbance at 490 nm was measured using a Wallac Victor 3 plate reader. For the Sytox cell death assay, measuring loss of plasma membrane integrity, cells were incubated with 1 μM Sytox Green reagent (Molecular Probes, Eugene, Oreg.) for 30 min at 37° C. and the fluorescence intensity was measured using Wallac Victor 3 plate reader with excitation at 485 nm and emission at 545 nm. […]

For the next data set, the system named is HUVEC. Nature of the data set: endothelial tube formation assay on Matrigel. The class given is cell-based, human. The method, then: The tube formation assay was performed in 96-well plates. Wells were pre-coated with 70 μl of the Matrigel basement membrane matrix (BD Biosciences) per well for 1 hr at 37° C. HUVEC were suspended in serum-free M199 medium and plated on Matrigel at a density of 2×10^4 cells per well. PIT-1 was added at indicated concentrations (3.125-100 μM). After an 8 hr incubation at 37° C., phase-contrast images of the endothelial tubes were obtained using a Nikon TE2000 microscope, and tube formation was assessed by counting the number of closed tubes in five random fields from each well.

The target in a further data set is T3, WAVE2 (Homo sapiens, UniProt Q9Y6W5).
T3 construct: expressed in transfected cells; host or cells: SUM159
Nature of the data set: plasma membrane translocation assay, WAVE2-GFP. Format: cell-based. The method, then: as §1

For a further data set, the system named is cancer cells. Format: cell-based.

T2 sequence (P31749 5-108 limits assumed): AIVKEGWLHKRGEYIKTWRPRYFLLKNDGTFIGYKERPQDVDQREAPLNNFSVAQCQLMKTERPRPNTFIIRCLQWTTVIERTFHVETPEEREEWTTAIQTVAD
T1 sequence (P52735 whole entry, species assumed): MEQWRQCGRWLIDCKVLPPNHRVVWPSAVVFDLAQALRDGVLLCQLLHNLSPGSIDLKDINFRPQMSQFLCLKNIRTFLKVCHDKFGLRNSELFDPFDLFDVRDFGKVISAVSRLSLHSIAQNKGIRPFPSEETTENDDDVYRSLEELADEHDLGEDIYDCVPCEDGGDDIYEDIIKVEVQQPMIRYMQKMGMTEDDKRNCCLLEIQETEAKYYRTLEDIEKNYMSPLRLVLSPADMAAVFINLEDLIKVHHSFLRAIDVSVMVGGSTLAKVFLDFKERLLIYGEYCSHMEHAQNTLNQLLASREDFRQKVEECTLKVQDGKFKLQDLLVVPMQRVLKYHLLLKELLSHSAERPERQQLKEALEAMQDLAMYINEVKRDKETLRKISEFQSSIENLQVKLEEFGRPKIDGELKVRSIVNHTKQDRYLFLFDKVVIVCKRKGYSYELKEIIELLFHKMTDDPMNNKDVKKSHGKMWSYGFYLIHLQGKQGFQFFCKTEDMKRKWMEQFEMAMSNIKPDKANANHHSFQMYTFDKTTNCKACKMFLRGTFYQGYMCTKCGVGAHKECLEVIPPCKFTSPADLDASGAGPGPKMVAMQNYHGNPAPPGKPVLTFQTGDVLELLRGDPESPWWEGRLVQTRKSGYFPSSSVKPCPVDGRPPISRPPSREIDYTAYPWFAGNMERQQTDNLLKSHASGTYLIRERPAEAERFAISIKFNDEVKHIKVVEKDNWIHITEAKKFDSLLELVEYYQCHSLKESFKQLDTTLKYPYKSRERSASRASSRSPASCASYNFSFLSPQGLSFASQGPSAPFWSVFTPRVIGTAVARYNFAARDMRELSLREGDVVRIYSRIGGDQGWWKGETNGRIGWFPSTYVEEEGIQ
T3 sequence (Q9Y6W5 whole entry, species assumed): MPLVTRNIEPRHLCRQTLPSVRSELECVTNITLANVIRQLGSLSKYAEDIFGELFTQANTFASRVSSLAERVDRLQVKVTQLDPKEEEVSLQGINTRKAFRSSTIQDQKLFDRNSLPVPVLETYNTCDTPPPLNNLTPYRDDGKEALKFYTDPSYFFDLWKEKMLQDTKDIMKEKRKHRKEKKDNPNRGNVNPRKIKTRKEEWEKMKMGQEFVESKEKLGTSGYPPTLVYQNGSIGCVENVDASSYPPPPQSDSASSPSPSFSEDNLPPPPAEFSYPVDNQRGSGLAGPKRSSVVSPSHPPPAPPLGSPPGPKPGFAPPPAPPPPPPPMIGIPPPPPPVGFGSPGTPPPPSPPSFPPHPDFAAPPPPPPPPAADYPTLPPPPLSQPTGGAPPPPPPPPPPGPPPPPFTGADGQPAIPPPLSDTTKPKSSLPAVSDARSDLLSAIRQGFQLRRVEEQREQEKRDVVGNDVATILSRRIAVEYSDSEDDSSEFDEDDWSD

What is called pIC50 is −log10 of the IC50, conventionally taken in molar units. Regarding `O=C(NC(=S)Nc1cc([N+](=O)[O-])cc(Cl)c1O)c1ccccc1` [PIT-1], the “inhibition of translocation of VAV2 to the plasma membrane” value at VAV2 is given as “significantly inhibited”. On Akt PH domain, the “inhibition of translocation of Akt PH domain to the plasma membrane” value was “significantly inhibited”. Further, the “cell death alone or with TRAIL in presence of zVAD.fmk” value with U87MG cells is “inhibited by a pan-caspase inhibitor zVAD.fmk”. Also, in the data set on HUVEC (Homo sapiens, HUVEC on Matrigel, 8 hr, 3.125-100 μM, read-out: IC50, inhibition of tube formation), the negative logarithm of the IC50 (pIC50) was 5.11. Also, at WAVE2, the “plasma membrane translocation of WAVE2” value is listed as “suppressed the plasma membrane translocation”. Further, the “cancer cell invasion through matrigel” value with cancer cells was “efficiently suppressed”. The “cytotoxic effects at the low concentrations used in migration and invasion experiments” value in the data set on cancer cells (P>0.05) is “no significant cytotoxic effects”.
Turning to `O=C1NC(=S)S/C1=C\c1cc(O)c([N+](=O)[O-])cc1Cc1ccccc1` [PIT-2], the “inhibition of translocation of VAV2 to the plasma membrane” value against VAV2 is reported as “significantly inhibited”. At Akt PH domain, the “inhibition of translocation of Akt PH domain to the plasma membrane” value is recorded as “significantly inhibited”. The “cell death alone or with TRAIL in presence of zVAD.fmk” value in the data set with U87MG cells is listed as “inhibited by a pan-caspase inhibitor zVAD.fmk”. Besides, the “inhibition of tube formation” value with HUVEC is “also observed”. Also, at WAVE2, the “plasma membrane translocation of WAVE2” value is given as “suppressed the plasma membrane translocation”. In addition, in the data set with cancer cells, the “cancer cell invasion through matrigel” value is on record as “efficiently suppressed”.
